Laboratory results reported in patent US20040029889A1, “Heteroaryl alkyl piperazine derivatives as fatty acid oxidation inhibitors” (priority 2000, published 2004).

What was measured:
[1] = tested on: mitochondrial fatty acid oxidation using palmitoyl CoA as substrate; test: Palmitoyl CoA oxidation in isolated rat heart mitochondria; type: biochemical; conditions: 1-C14 palmitoyl CoA substrate, 15 min at 30° C., vs DMSO control; for Inhibition of mitochondrial fatty acid oxidation, % of Control, 50 μm (%): 50 μm compound; for Inhibition of mitochondrial fatty acid oxidation, % of Control, 100 μm (%): 100 μm compound
Experimental: Rat heart mitochondria were isolated by the method of Nedergard and Cannon (Methods in Enzymol. 55, 3, 1979).
Palmitoyl CoA oxidation—The Palmityl CoA oxidation was carried out in a total volume of 100 micro liters containing the following agents: 110 mM KCl, 33 mM Tris buffer at pH 8, 2 mM KPi, 2 MM MgCl2, 0.1 MM EDTA, 14.7 microM defatted BSA, 0.5 mM malic acid, 13 mM carnitine, 1 mM ADP, 52 micrograms of mitochondrial protein, and 16 microM 1-C14 palmitoyl CoA (Sp. Activity 60 mCi/mmole; 20 microCi/ml, using 5 microliters per assay). The compounds of this invention were added in a DMSO solution at the following concentrations: 100 microM, and 50 microM. In each assay, a DMSO control was used. After 15 min at 30° C., the enzymatic reaction was centrifuged (20,000 g for 1 min), and 70 microliters of the supernatant was added to an activated reverse phase silicic acid column (approximately 0.5 ml of silicic acid). The column was eluted with 2 ml of water, and 0.5 ml of the eluent was used for scintillation counting to determine the amount of C^14 trapped as C^14 bicarbonate ion.

[2] = Metabolic stability in human liver S-9 fractions; type: in vitro ADME; conditions: % parent remaining after 30 min at 37 C divided by average % ranolazine remaining (57%), >1.2 better, 0.8-1.2 equivalent, <0.8 less stable than ranolazine
Experimental: Metabolic Stability: As a measure of metabolic stability the compounds of this invention were incubated with human liver S-9 microsomal fractions. After, 30 minutes at 37 C, the amount of parent drug remaining was determined using LC-mass spec. The response factors for each compound was determined by establishing a standard curve and using an internal standard during the analysis of the samples. An average of five experiments for percentage of ranolazine remaining at the 30 minute time point is 57%. The compounds of this invention were assayed as described in the protocol below and the percentage of parent remaining was divided by the average % of ranolazine remaining (57%) affording a metabolic stability factor. A compound with a stability number greater than 1.2 has a better stability than ranolazine in the liver S-9 assay. A compound with a stability number between 1.2 and 0.8 has an equivalent stability in the liver S-9 assay.
The purpose of this experiment is to compare the percentages remaining for compounds of this invention with the percentage remaining for ranolazine after 30 minutes of incubation with human liver S9 fractions.
The following reagents were used; Potassium phosphate, 0.5M pH 7.4 (incubation buffer), kept at room temperature; 0.05M MgCl2 kept at 4° C.; β-Nicotinamide adenine dinucleotide phosphate, tetrasodium salt, reduced form (NADPH), 0.02M solution in water (˜16.6 mg/mL) from Sigma Lot # 79H7044 prepared on day of use. 1 mM of ranolazine or Compounds 43, 45, 47, 52, 70, 74, 76, 78, and 80 in ACN further diluted to obtain 100 μM in 10% ACN; Human S9 stock: 20 mg/mL from Gentest.
Incubation mixtures were prepared as follows:
Combine all components with incubation buffer and re-pipette 200 μL/tube+25 μL of the compound being tested along with 25 μL of S-9.
After 5 min of pre-incubation at 37° C., at 0 and 30 min after starting the reaction, a 50 μl aliquot of the incubation mixture was removed and added to 100 μL of 9:1 acetonitrile: methanol containing the internal standard.
The mixture was centrifuged and a 100 μL aliquot of the supernatant was diluted in 1 mL of solvent C (0.1% Formic Acid in water). Then samples were analyzed for change between the ratio of compound to internal standard at time zero and 30 minutes by LC/MS (injected 10 μL).
Samples were analyzed for the starting compounds and potential metabolite/s by LC/MS using an internal standard and an ODS-C18 column with a flow rate of 0.25 ml/min.

Liver S9 Stability Factor [2] | Structure (SMILES) | Inhibition of mitochondrial fatty acid oxidation, % of Control, 50 μm (%) [1] [%] | Inhibition of mitochondrial fatty acid oxidation, % of Control, 100 μm (%) [1] [%]
 | Cc1cccc(C)c1NC(=O)CN1CCN(CC(O)COc2ccc3oc(-c4cccc(C(F)(F)F)c4)nc3c2)CC1 (centres unmarked) [Compound 7, N-(2,6-dimethyl-phenyl)-2-(4-{2-hydroxy-3-[2-(3-trifluoromethylphenyl)benzoxazol-5-yloxy]-propyl}-piperazin-1-yl)acetamide] | 77 | 
 | Cc1cccc(C)c1NC(=O)CN1CCN(CC(O)CNc2nc3ccccc3s2)CC1 (centres unmarked) [Compound 39, 2-{4-[3-(benzothiazol-2-ylamino)-2-hydroxypropyl]piperazinyl}-N-(2,6-dimethylphenyl)acetamide] |  | 27
0.6 | Cc1cccc(C)c1NC(=O)CN1CCN(CC(O)COc2nc3ccccc3s2)CC1 (centres unmarked) [Compound 43, 2-{4-[3-(benzothiazol-2-yloxy)-2-hydroxy-propyl]-piperazin-1-yl}-N-(2,6-dimethylphenyl)acetamide] |  | 21
0.8 | Cc1nc2cc(OCC(O)CN3CCN(CC(=O)Nc4c(C)cccc4C)CC3)ccc2s1 (centres unmarked) [Compound 45] |  | 87
1.1 | Cc1cccc(C)c1NC(=O)CN1CCN(CC(O)COc2cccc3[nH]c(C(N)=O)cc23)CC1 (centres unmarked) [Compound 46] |  | 61
1.5 | Cc1cccc(C)c1NC(=O)CN1CCN(CC(O)COc2ccc3ncsc3c2)CC1 (centres unmarked) [Compound 47, 2-{4-[3-(benzothiazol-6-yloxy)2-hydroxy-propyl]-piperazin-1-yl}-N-(2,6-dimethylphenyl)-acetamide] |  | 70
 | Cc1nc2ccc(OCC(O)CN3CCN(CC(=O)Nc4c(C)cccc4C)CC3)cc2s1 (centres unmarked) [Compound 49, N-(2,6-dimethylphenyl)-2-{4-[2-hydroxy-3-(2-methyl-benzothiazol-6-yloxy)-propyl]-piperazin-1-yl}aceamide] |  | 3
0.5 | Cc1nc2cc(OCC(O)CN3C(C)CN(CC(=O)Nc4c(C)cccc4C)CC3C)ccc2s1 (centres unmarked) [Compound 52, N-(2,6-dimethylphenyl)-2-{4-[2-hydroxy-3-(2-methyl-benzothiazol-5-yloxy)-propyl]-3,5-dimethyl-piperazine-1-yl}acetamide] |  | 95
 | Cc1nc2cc(OCC(O)CN3CCN(CC(=O)Nc4ccc(O)cc4)CC3)ccc2s1 (centres unmarked) [Compound 54, 2-{14-[2-hydroxy-3-(2-methyl-benzothiazol-5-yloxy)-propyl]-piperazin-1-yl}-N-(4-hydroxy-phenyl)acetamide] |  | 81
 | Cc1cccc(C)c1NC(=O)CN1CCN(CC(O)COc2ccc3oc(-c4ccccc4)nc3c2)CC1 (centres unmarked) [Compound 60, N-(2,6-dimethylphenyl)-2-{4-[2-hydroxy-3-(2-phenyl-benzoxazol-5-yloxy)-propyl)-piperazin-1-yl}acetamide] | 61 | 
 | Cc1cccc(C)c1NC(=O)CN1CCN(CC(O)COc2cccc3nc(-c4ccccc4)sc23)CC1 (centres unmarked) [Compound 62] | 62 | 
 | Cc1nc2cc(OCC(O)CN3CCN(CC(=O)Nc4c(C)cccc4C)C(=O)C3)ccc2s1 (centres unmarked) [Compound 64, N-(2,6-dimethylphenyl)-2-{4-[2-hydroxy-3-(2-methyl-benzothiazol-5-yloxy)-propyl]-2-oxo-piperazin-1-yl}acetamide] |  | 41
 | Cc1cccc(C)c1NC(=O)CN1CCN(CC(O)COc2ccc3oc(-c4ccc(C(F)(F)F)cc4)nc3c2)CC1 (centres unmarked) [Compound 68, N-(2,6-dimethylphenyl)-2-(4-{2-hydroxy-3-[2-(4-trifluoromethyl-phenyl)-benzoxazol-5-yloxy]-propyl}-piperazin-1-yl)acetamide] | 68 | 
0.1 | Cc1cccc(C)c1NC(=O)CN1CCN(CC(O)COc2cnc3ccccc3n2)CC1 (centres unmarked) [Compound 70, N-(2,6-dimethylphenyl)-2-{4-[2-hydroxy-3-(quinoxalin-2-yloxy)-propyl]-piperazin-1-yl}acetamide] |  | 
 | Cc1cccc(C)c1NC(=O)CN1CCN(CC(O)COc2cccnc2)CC1 (centres unmarked) [Compound 72, N-(2,6-dimethylphenyl)-2-{4-[2-hydroxy-3-(pyridin-3-yloxy)-propyl]-piperazin-1-yl}acetamide] |  | 8
1.0 | Cc1cccc(C)c1NC(=O)CN1CCN(CC(O)COc2ccnc3ccccc23)CC1 (centres unmarked) [Compound 74, N-(2,6-dimethylphenyl)-2-{4-[2-hydroxy-3-(quinolin-4-yloxy)-propyl]-piperazin-1-yl}acetamide] |  | 12
0.8 | Cc1cccc(C)c1NC(=O)CN1CCN(CC(O)COc2cccc3cnccc23)CC1 (centres unmarked) [Compound 76, N-(2,6-dimethylphenyl)-2-{4-[2-hydroxy-3-(isoquinolin-5-yloxy)-propyl]-piperazin-1-yl}acetamide] |  | 26
0.6 | Cc1cccc(C)c1NC(=O)CN1CCN(CC(O)COc2ccc3ncccc3c2)CC1 (centres unmarked) [Compound 78] |  | 42
0.5 | Cc1ccc2ccc(OCC(O)CN3CCN(CC(=O)Nc4c(C)cccc4C)CC3)cc2n1 (centres unmarked) [Compound 80, N-(2,6-dimethylphenyl)-2-{4-[2-hydroxy-3-(2-methyl-quinolin-7-yloxy)-propyl]-piperazin-1-yl}acetamide] |  | 22
 | Cc1cccc(C)c1NC(=O)CN1CCN(CC(O)CNc2nc3ccccc3o2)CC1 (centres unmarked) [Compound 82, 2-{4-[3-(benzoxazol-2-ylamino)-2-hydroxypropyl]piperazinyl}-N-(2,6-dimethylphenyl)acetamide] |  | 22
